The text below walks through data of US9884042B2, “Formulations of cyclopropanecarboxylic acid {2-[(1S)-1-(3-ethoxy-4-methoxy-phenyl)-2-methanesulfonyl-ethyl]-3-oxo-2,3-dihydro-1H-isoindol-4-yl}-amide” (Celgene Corporation, priority 2011, dated 2018).

The subject of data set [1] is PDE4 enzyme from U937 human monocytic cells. Description: Enzyme assay using purified PDE4 enzyme. In kind it is biochemical. From the text:
Cyclopropane carboxylic acid {2-[(1S)-1-(3-ethoxy-4-methoxy-phenyl)-2-methanesulfonyl-ethyl]-3-oxo-2,3-dihydro-1H-isoindol-4-yl}-amide (“Compound A”) is a novel compound with anti-inflammatory activity in clinical development for the treatment of a variety of chronic inflammatory conditions. Pharmacologically, Compound A blocks the degradation of cyclic adenosine monophosphate (cAMP) via inhibition of the phosphodiesterase type IV (PDE4) enzyme, resulting in an increase in cAMP in PDE4-expressing cells including monocytes, T cells, and neutrophils. Enzyme assay data using purified PDE4 enzyme from U937 human monocytic cells indicate that Compound A has a PDE4 IC50 of 100 nM (50 ng/mL). Compound A and methods for its synthesis are described, e.g., in U.S. Patent Publication No. 2010/0129363, the disclosure of which is hereby incorporated by reference in its entirety. Compound A may also be prepared according to the process described in U.S. Patent Publication No. 2010/0168475, the disclosure of which is hereby incorporated in its entirety.

Data set [2] can be described thus: Solubility of the drug substance. Type of data set: physicochemical. As to conditions: qualitative statement. From the text:
Due to its diversified pharmacological properties, Compound A is useful in treating, preventing, and/or managing various diseases or disorders.

As for `CCOc1cc([C@@H](CS(C)(=O)=O)N2Cc3cccc(NC(=O)C4CC4)c3C2=O)ccc1OC` [Compound A, cyclopropanecarboxylic acid {2-[(1S)-1-(3-ethoxy-4-methoxy-phenyl)-2-methanesulfonyl-ethyl]-3-oxo-2,3-dihydro-1H-isoindol-4-yl}-amide], the IC50 in data set [1] is 100 nM. Moreover, the “PDE4 IC50” value in data set [1] (same value in mass units) came out at 0.05 µg/mL. Also, the Solubility result in data set [2] was “poorly soluble”.

As a reminder, the IC50 is the concentration that gives 50% inhibition. A high value points to lower potency.
